Experiments:
Assay type in all cases: in vivo
Settings in all cases: 1000 g/Ha, evaluated after 13 days, glasshouse
Setaria faberi (SETFA) [1] = assay: Pre-emergence herbicidal activity, percentage damage to SETFA
Method: (§1) Seeds of a variety of test species are sown in standard soil in pots Amaranthus palmeri (AMAPA), Amaranthus retroflexus (AMARE), Setaria faberi (SETFA), Echinochloa crus-galli (ECHCG), Ipomoea hederacea (IPOHE),). After cultivation for one day (pre-emergence) or after 8 days cultivation (post-emergence) under controlled conditions in a glasshouse (at 24/160C, day/night; 14 hours light; 65% humidity), the plants are sprayed with an aqueous spray solution derived from the dissolution of the technical active ingredient in a small amount of acetone and a special solvent and emulsifier mixture referred to as IF50 (11.12% Emulsogen EL360 TM+44.44% N-methylpyrrolidone+44.44% Dowanol DPM glycol ether, which was then diluted to required concentration using 0.2% Genapol XO80 (CAS No. 9043-30-5) in water as the diluent. Compounds are applied at the rates stated. The test plants are then grown in a glasshouse under controlled conditions in a glasshouse (at 24/160C, day/night; 14 hours light; 65% humidity) and watered twice daily. After 13 days for pre and post-emergence, the test is evaluated for the percentage damage caused to the plant. The biological activities are shown in the following table on a five-point scale (5=81-100%; 4=61-80%; 3=41-60%; 2=21-40%; 1=0-20%; NT=not tested).

[2] = test system: Amaranthus palmeri (AMAPA); assay: Post-emergence herbicidal activity, percentage damage to AMAPA
Method: as §1

[3] = test system: Ipomoea hederacea (IPOHE); assay: Pre-emergence herbicidal activity, percentage damage to IPOHE
Method: as §1

Setaria faberi (SETFA) [4] = assay: Post-emergence herbicidal activity, percentage damage to SETFA
Method: as §1

[5] = test system: Amaranthus palmeri (AMAPA); assay: Pre-emergence herbicidal activity, percentage damage to AMAPA
Method: as §1

[6] = test system: Ipomoea hederacea (IPOHE); assay: Post-emergence herbicidal activity, percentage damage to IPOHE
Method: as §1

[7] = test system: Amaranthus retroflexus (AMARE); assay: Pre-emergence herbicidal activity, percentage damage to AMARE
Method: as §1

[8] = test system: Echinochloa crus-galli (ECHCG); assay: Pre-emergence herbicidal activity, percentage damage to ECHCG
Method: as §1

[9] = test system: Amaranthus retroflexus (AMARE); assay: Post-emergence herbicidal activity, percentage damage to AMARE
Method: as §1

[10] = test system: Echinochloa crus-galli (ECHCG); assay: Post-emergence herbicidal activity, percentage damage to ECHCG
Method: as §1

Row | SMILES | percentage damage caused to the plant (SETFA) (Setaria faberi (SETFA) [1]) | percentage damage caused to the plant (AMAPA) [2] | percentage damage caused to the plant (IPOHE) [3] | percentage damage caused to the plant (SETFA) (Setaria faberi (SETFA) [4]) | percentage damage caused to the plant (AMAPA) [5] | percentage damage caused to the plant (IPOHE) [6] | percentage damage caused to the plant (AMARE) [7] | percentage damage caused to the plant (ECHCG) [8] | percentage damage caused to the plant (AMARE) [9] | percentage damage caused to the plant (ECHCG) [10]
1 | O=C(O)C[C@H]1[C@@H]2C[C@@H]2C(=O)N1Cc1cccc(F)c1F (relative stereo) [Compound A.04, 2-[(1R*,2S*,5S*)-3-[(2,3-difluorophenyl)methyl]-4-oxo-3-azabicyclo[3.1.0]hexan-2-yl]acetic acid] | 3 (41-60%) | 1 (0-20%) | 1 (0-20%) | 4 (61-80%) | 2 (21-40%) | 1 (0-20%) | 2 (21-40%) | 2 (21-40%) | 1 (0-20%) | 3 (41-60%)
2 | COC(=O)C[C@@H]1[C@@H]2C[C@@H]2C(=O)N1Cc1cccc(F)c1F (relative stereo) [Compound A.07, methyl 2-[(1R*,2R*,5S*)-3-[(2,3-difluorophenyl)methyl]-4-oxo-3-azabicyclo[3.1.0]hexan-2-yl]acetate] | 5 (81-100%) | 3 (41-60%) | 2 (21-40%) | 4 (61-80%) | 3 (41-60%) | 3 (41-60%) | 4 (61-80%) | 4 (61-80%) | 3 (41-60%) | 3 (41-60%)
3 | O=C(O)C[C@@H]1[C@@H]2C[C@@H]2C(=O)N1Cc1ccc(F)c(F)c1F (relative stereo) [Compound A.13, 2-[(1R*,2R*,5S*)-3-[(2,3,4-trifluorophenyl)methyl]-4-oxo-3-azabicyclo[3.1.0]hexan-2-yl]acetic acid] | 5 (81-100%) | 2 (21-40%) | 4 (61-80%) | 5 (81-100%) | 3 (41-60%) | 2 (21-40%) | 4 (61-80%) | 3 (41-60%) | 3 (41-60%) | 3 (41-60%)
4 | O=C(O)C[C@H]1[C@@H]2CCCC[C@@H]2C(=O)N1Cc1cccc(F)c1F (relative stereo) [E.04, 2-[(1S*,3aS*,7aR*)-2-[(2,3-difluorophenyl)methyl]-3-oxo-3a,4,5,6,7,7a-hexahydro-1H-isoindol-1-yl]acetic acid] | 3 (41-60%) | 1 (0-20%) | 1 (0-20%) | 1 (0-20%) | 4 (61-80%) | 1 (0-20%) | 4 (61-80%) | 1 (0-20%) | 1 (0-20%) | 1 (0-20%)
